Conditions: 101 kPa, Liquid mixture 1, Drop weight

Cc1ccccc1 [toluene] + O
Conditions	interfacial tension [mN/m]
293.15 K	37.1
298.15 K	36.1
303.15 K	35.5
308.15 K	35.1
313.15 K	34.7
323.15 K	34.3

Reference: the NIST ThermoML archive (doi:10.1021/je060204g)
